Laboratory results reported in patent US4634783A, “Novel amidine compound” (Torii & Co. Ltd., priority 1983, dated 1987).
pIC50: −log10 of the molar value. Like-named read-outs stand apart in the source and are kept apart here.

Legend:
Kallikrein = assay: anti-kallikrein activity (hydrolysis of TAME); type: biochemical; details: for pIC50: TAME hydrolysis, read-out: ID50 Kallikrein; for percentage inhibition Kallikrein: at 1×10^-5 M, figure in parentheses
Method: (§1) The anti-trypsin, anti-plasmin, anti-kallikrein and anti-thrombin activities were determined according to the method of Muramatsu et al. [M. Muramatsu, T. Onishi, S. Makino, Y. Hayashi and S. Fujii, J. of Biochem., 58, 214 (1965)]. […] The compound No. corresponds to the compound number shown in Examples.

C1r = biological target: T1, C1r (Homo sapiens, UniProt P00736); assay: anti-C1 esterase (C1r) activity (hydrolysis of AAME); type: biochemical; details: for pIC50: AAME hydrolysis, read-out: ID50 C1r; for inhibition at 10 µM: at 1×10^-5 M, figure in parentheses, read-out: percent inhibition C1r
T1 sequence (P00736 464-705 limits assumed): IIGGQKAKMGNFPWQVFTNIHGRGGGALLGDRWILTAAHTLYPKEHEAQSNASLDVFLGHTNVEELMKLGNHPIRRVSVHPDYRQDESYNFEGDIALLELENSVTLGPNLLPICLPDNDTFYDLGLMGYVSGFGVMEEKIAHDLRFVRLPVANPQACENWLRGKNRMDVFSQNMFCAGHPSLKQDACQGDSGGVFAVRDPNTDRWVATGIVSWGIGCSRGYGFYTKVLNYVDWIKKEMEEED
T1 sequence (P00736 18-463 limits assumed): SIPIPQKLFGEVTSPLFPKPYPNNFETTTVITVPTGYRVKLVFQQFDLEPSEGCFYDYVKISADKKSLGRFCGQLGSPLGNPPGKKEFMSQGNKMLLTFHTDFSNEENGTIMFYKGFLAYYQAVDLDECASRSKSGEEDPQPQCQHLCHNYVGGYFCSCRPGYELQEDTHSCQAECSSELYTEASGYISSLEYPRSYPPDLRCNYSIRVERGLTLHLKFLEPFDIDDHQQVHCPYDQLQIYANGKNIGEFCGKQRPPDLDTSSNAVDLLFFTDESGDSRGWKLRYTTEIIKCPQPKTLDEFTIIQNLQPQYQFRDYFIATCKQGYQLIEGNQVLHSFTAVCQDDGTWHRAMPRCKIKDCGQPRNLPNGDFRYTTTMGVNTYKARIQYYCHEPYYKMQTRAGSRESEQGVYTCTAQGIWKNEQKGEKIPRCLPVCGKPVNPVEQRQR
Method: (§2) The anti-C1 esterase (C1r, C1s) activity was determined according to the method of Okamura et al. [K. Okamura, M. Muramatsu and B. Fujii, Biochem. Biophys. Acta, 295, 252-257 (1973)]. The inhibition of complement mediated hemolysis was determined according to the method of Baker et al. [B. R. Baker and E. H. Erickson, J. Med. Chem., 12, 408-414 (1969)]. The figures in Table 2 have the following meanings:
C1r: Molar concentration of the test compound which inhibits 50% of the ability of C1r to hydrolyse AAME (acetylarginin methyl ester) (ID50).

C1s = biological target: T2, C1s (Homo sapiens, UniProt P09871); assay: anti-C1 esterase (C1s) activity (hydrolysis of ATEE); type: biochemical; details: for pIC50: ATEE hydrolysis, read-out: ID50 C1s; for inhibition at 10 µM: at 1×10^-5 M, figure in parentheses, read-out: percent inhibition C1s
T2 sequence (P09871 438-688 limits assumed): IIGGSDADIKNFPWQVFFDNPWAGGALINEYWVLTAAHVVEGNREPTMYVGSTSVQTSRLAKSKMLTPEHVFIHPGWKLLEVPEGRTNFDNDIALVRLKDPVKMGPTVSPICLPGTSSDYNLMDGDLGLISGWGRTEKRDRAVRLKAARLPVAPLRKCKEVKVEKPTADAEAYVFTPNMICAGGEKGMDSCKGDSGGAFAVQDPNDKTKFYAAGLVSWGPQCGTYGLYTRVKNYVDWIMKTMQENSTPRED
T2 sequence (P09871 16-437 limits assumed): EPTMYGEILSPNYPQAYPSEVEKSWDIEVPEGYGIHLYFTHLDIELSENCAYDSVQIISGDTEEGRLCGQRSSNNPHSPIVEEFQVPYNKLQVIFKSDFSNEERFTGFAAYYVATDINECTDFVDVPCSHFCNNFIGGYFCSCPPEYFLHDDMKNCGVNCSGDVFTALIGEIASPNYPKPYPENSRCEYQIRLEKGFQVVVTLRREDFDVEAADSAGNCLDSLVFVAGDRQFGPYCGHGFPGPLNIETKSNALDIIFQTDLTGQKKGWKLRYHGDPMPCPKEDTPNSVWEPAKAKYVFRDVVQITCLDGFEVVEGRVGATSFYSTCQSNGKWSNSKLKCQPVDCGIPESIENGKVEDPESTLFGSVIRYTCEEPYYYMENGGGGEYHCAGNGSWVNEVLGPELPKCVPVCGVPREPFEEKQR
Method: as §2
C1s: Molar concentration of the test compound which inhibits 50% of the ability of C1s to hydrolyse ATEE (acetyltyrosin ethyl ester) (ID50).

Trypsin = biological target: T3, Trypsin (Bos taurus, UniProt P00760); assay: anti-trypsin activity (hydrolysis of TAME); type: biochemical; details: read-out: ID50 Trypsin
T3 sequence (P00760 24-246): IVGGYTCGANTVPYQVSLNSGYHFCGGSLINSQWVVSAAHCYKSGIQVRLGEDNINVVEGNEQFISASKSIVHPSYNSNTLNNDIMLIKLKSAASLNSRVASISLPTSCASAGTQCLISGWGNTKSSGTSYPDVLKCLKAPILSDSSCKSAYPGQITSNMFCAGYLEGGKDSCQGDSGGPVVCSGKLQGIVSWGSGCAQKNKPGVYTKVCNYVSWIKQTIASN
Method: as §1

Plasmin = Plasmin (Homo sapiens, UniProt P00747); assay: anti-plasmin activity (hydrolysis of TAME); type: biochemical; details: for pIC50: TAME hydrolysis, read-out: ID50 Plasmin; for inhibition at 10 µM: at 1×10^-5 M, figure in parentheses, read-out: percentage inhibition Plasmin
Chain of Plasmin (P00747 581-810 limits assumed, species assumed): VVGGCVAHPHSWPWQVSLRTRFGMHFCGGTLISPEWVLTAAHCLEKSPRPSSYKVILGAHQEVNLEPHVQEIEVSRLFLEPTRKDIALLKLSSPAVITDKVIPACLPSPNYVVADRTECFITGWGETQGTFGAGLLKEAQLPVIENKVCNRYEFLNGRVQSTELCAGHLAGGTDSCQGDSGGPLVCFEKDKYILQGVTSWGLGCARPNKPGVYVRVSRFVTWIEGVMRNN
Chain of Plasmin (P00747 97-580 limits assumed, species assumed): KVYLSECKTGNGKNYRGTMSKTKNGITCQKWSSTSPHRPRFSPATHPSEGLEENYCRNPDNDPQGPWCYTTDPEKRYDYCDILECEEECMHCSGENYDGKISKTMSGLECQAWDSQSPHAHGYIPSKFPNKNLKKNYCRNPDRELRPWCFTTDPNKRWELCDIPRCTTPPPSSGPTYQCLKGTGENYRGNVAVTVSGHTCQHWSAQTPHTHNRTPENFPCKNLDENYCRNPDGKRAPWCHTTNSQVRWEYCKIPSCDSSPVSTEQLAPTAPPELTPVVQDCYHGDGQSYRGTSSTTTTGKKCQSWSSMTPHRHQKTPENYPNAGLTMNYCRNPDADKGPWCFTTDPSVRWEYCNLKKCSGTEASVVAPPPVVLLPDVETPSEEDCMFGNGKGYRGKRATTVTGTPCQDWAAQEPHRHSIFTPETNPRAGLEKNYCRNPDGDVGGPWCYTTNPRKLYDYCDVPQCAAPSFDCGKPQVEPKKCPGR
Method: as §1

[1] = Toxicity: median lethal dose (LD50); details: in vivo, mouse
[2] = tested on: complement mediated hemolysis; assay: inhibition of complement mediated hemolysis; type: cell-based
Method: The complement mediated hemolysis is widely used as a means to determine the titration of complement. The principle of this method is based on the fact that hemolysis is caused by the activation of complement, when the latter is added to a complex (immune complex) of erythrocytes and the antibody thereof. The degree of hemolysis varies in proportion to the amount of complement added. Therefore, when a known amount of complement admixed with a C1 esterase inhibitor is used, the hemolysis must be suppressed in proportion to the inhibitory activity.
as §2
Inhibition of complement mediated hemolysis (%): The inhibitory activity is shown in terms of percent inhibition of the compound at varied concentrations: […]

Forssman shock = assay: Forssman shock; type: in vivo; details: test compound 3 mg/kg before hemolysin i.v.; male Hartlay guinea pig; control death at 278, 318, 296 sec.
Excerpt: Quite different from other animals, guinea pig has on the surface of its organs a specific antigen called Forssman antigen which specifically reacts with the antibody of sheep erythrocyte. Forssman shock is based on the above principle and is a shock caused by the administration of antibody of sheep erythrocyte to a guinea pig. The Forssman shock was investigated in detail by many researches and it was definitely shown that this shock is a model case where the complement plays the principal part and that the shock is associated with a classical pathway in which the complement system is activated progressively starting from C1. Since the participation of complement in autoimmune diseases has been established, the Forssman shock can be said to be a useful means for testing a drug for autoimmune diseases. A drug effective for the treatment of Forssman shock is useful as a drug of autoimmune diseases.
The experiment was performed according to the method of I. G. Offerness et al. [Biochem. Pharmacol., 27 (14), 1873-1878 (1978)]. Male Hartlay guinea pig of about 300 g in body weight was used. Each guinea pig of the control group was administered intravenously with hemolysin (minimum dose to cause the shock) (commercial hemolysin, 5,000 U as assayed by the method of Ogata) and the time elapsed until death was observed. […]

Thrombin = Thrombin (Homo sapiens, UniProt P00734); assay: biochemical; details: for pIC50: read-out: ID50 Thrombin; for inhibition at 10 µM: at 1×10^-5 M, figure in parentheses, read-out: percentage inhibition Thrombin

SMILES | pIC50 (Kallikrein) | pIC50 (C1r) | pIC50 (C1s) | pIC50 (Trypsin) | pIC50 (Plasmin) | pIC50 (Thrombin; TAME hydrolysis) | inhibition at 10 µM (C1s) | pIC50 (Thrombin) | inhibition at 10 µM (C1r) | inhibition at 10 µM (Plasmin) | inhibition at 10 µM (Thrombin) | LD50 ([1]; ip, I.P.) | LD50 ([1]; po, P.O.) | Inhibition of complement mediated hemolysis ([2]; 1 × 10^-4) | Inhibition of complement mediated hemolysis ([2]; 1 × 10^-5) | Inhibition of complement mediated hemolysis ([2]; 1 × 10^-6) | Inhibition of complement mediated hemolysis ([2]; 1 × 10^-7) | time elapsed until death (survival) in Forssman shock (Forssman shock) | percentage inhibition Kallikrein (Kallikrein)
COc1ccc(C(=O)Oc2ccc3cc(C(=N)N)ccc3c2)o1 [Compound No. 1, 6-amidino-2-naphthyl 5-methoxy-furan-2-carboxylate] | 6.52 | 7.22 | 6.70 | 8.00 | 6.40 | 6.70 | – | – | – | – | – | 200 mg/kg | 2500 mg/kg | 100% | 100% | 98% | 99% | Survival | –
N=C(N)c1ccc2cc(OC(=O)C=Cc3ccco3)ccc2c1 [compound 14] | 5.30 | 5.52 | 6.40 | 6.00 | 6.52 | 5.15 | – | – | – | – | – | – | – | 98% | 94% | 72% | 20% | – | –
N=C(N)c1ccc2cc(OC(=O)c3cc4ccccc4o3)ccc2c1 [compound 16] | – | 5.40 | – | 5.70 | 5.52 | 5.15 | < 10% | – | – | – | – | – | – | 100% | 99% | 99% | 98% | – | NE (the percentage inhibition is less than 10%)
COc1ccc2oc(C(=O)Oc3ccc4cc(C(=N)N)ccc4c3)cc2c1 [compound 17] | – | 5.40 | 5.22 | 5.52 | 5.52 | 5.70 | – | – | – | – | – | – | – | 100% | 100% | 95% | 90% | – | NE (the percentage inhibition is less than 10%)
N=C(N)c1ccc2cc(OC(=O)c3ccc([N+](=O)[O-])o3)ccc2c1 [compound 65, 6-amidino-2-naphthyl 5-nitrofuran-2-carboxylate] | – | – | – | 6.10 | – | – | 28% | – | 30% | < 10% | 13% | – | – | 100% | 100% | 89% | 80% | – | NE (the percentage inhibition is less than 10%)

The next lines start with results.

pIC50 (Kallikrein) | pIC50 (C1r) | pIC50 (C1s) | pIC50 (Trypsin) | pIC50 (Plasmin) | pIC50 (Thrombin; TAME hydrolysis) | inhibition at 10 µM (C1s) | pIC50 (Thrombin) | inhibition at 10 µM (C1r) | inhibition at 10 µM (Plasmin) | inhibition at 10 µM (Thrombin) | SMILES | LD50 ([1]; ip, I.P.) | LD50 ([1]; po, P.O.) | Inhibition of complement mediated hemolysis ([2]; 1 × 10^-4) | Inhibition of complement mediated hemolysis ([2]; 1 × 10^-5) | Inhibition of complement mediated hemolysis ([2]; 1 × 10^-6) | Inhibition of complement mediated hemolysis ([2]; 1 × 10^-7) | time elapsed until death (survival) in Forssman shock (Forssman shock) | percentage inhibition Kallikrein (Kallikrein)
5.70 | 7.15 | 6.52 | 6.70 | 6.52 | 6.70 | – | – | – | – | – | N=C(N)c1ccc2cc(OC(=O)c3cccs3)ccc2c1 [compound 22] | – | – | 100% | 96% | 58% | 34% | – | –
5.70 | 6.15 | 6.40 | > 8.00 | 6.52 | – | – | 5.52 | – | – | – | Cc1ccc(C(=O)Oc2ccc3cc(C(=N)N)ccc3c2)s1 [compound 23] | – | – | 100% | 99% | 95% | 91% | – | –
– | – | 6.52 | 5.22 | – | – | – | – | 31% | < 10% | < 10% | N=C(N)c1ccc2cc(OC(=O)c3ccc[nH]3)ccc2c1 [compound 28] | – | – | 88% | 55% | 28% | NE (the percentage inhibition is less than 10%) | – | NE (the percentage inhibition is less than 10%)
– | – | – | 5.30 | 5.15 | 5.40 | 20% | – | 18% | – | – | N=C(N)c1ccc2cc(OC(=O)c3ccccn3)ccc2c1 [compound 45] | – | – | 100% | 98% | 75% | 46% | – | NE (the percentage inhibition is less than 10%)
